Where no end group is shown, it is not given here.
Key:
[1] = biological target: T1, rat GIP receptor (Rattus norvegicus, UniProt P43219); assay: cAMP-dependent β-galactosidase production in LGIPR2 cells (agonist activity); assay type: cell-based
T1 construct: expressed in transfected cells; host or cells: L cells (LGIPR2), also carrying a VIP-promoter/lacZ cAMP reporter
T1 sequence (P43219 19-455): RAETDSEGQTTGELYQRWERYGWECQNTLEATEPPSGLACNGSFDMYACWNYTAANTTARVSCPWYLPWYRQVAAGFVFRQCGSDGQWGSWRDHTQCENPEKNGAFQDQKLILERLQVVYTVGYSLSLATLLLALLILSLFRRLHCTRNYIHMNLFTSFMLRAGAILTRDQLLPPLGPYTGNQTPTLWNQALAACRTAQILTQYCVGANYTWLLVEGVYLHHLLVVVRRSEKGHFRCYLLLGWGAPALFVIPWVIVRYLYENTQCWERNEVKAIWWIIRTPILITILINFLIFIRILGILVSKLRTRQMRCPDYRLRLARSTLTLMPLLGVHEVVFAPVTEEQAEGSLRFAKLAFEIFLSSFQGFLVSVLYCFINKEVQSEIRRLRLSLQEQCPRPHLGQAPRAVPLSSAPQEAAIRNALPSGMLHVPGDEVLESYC
From the text: LGIPR2 cells are stably transfected with a cAMP-dependent promoter from the VIP gene fused to the bacterial lac Z gene. When intracellular cAMP increases within these cells, lac Z gene transcription is activated, resulting in the accumulation of its product, β-galactosidase. The measurement of β-galactosidase in this system provided a convenient, inexpensive, and nonradioactive method for detecting changes in the levels of intracellular cAMP. […] The medium was then removed and wells rinsed once with phosphate-buffered saline (PBS). The plates were then blotted briefly and frozen overnight at −70° C., and, after the addition of chlorophenol red-β-D-galactopyranoside, accumulated β-galactosidase was detected using a calorimetric assay, as described previously (Usdin, et al., 1993, Endocrinology, 133:2861–2870). […] Natl. Acad. Sci. USA, 90:1992–1996).

[2] = biological target: T1, rat GIP receptor; assay: Inhibition of GIP (1–42)-stimulated cAMP-dependent β-galactosidase production in LGIPR2 cells; assay type: cell-based
Experimental: LGIPR2 cells are stably transfected with a cAMP-dependent promoter from the VIP gene fused to the bacterial lac Z gene. When intracellular cAMP increases within these cells, lac Z gene transcription is activated, resulting in the accumulation of its product, β-galactosidase. The measurement of β-galactosidase in this system provided a convenient, inexpensive, and nonradioactive method for detecting changes in the levels of intracellular cAMP.
LGIPR2 cells were grown in Dulbecco's Modified Eagle's Medium (DMEM) containing 4.5 g/L of glucose and 10% fetal calf serum. For each assay, 10^5 cells/well were seeded onto 24-well plates. After incubation overnight, peptides were added in various concentrations to the wells in the absence of 3-isobutyl-methylxanthine (IBMX) for 4 h, at which time maximal stimulation of β-galactosidase was determined. The medium was then removed and wells rinsed once with phosphate-buffered saline (PBS). The plates were then blotted briefly and frozen overnight at −70° C., and, after the addition of chlorophenol red-β-D-galactopyranoside, accumulated β-galactosidase was detected using a calorimetric assay, as described previously (Usdin, et al., 1993, Endocrinology, 133:2861–2870).
Values are expressed as the mean±SE of quadruplicate measurements.

[3] = test system: fasted anesthetized rats; assay: Intravenous infusion of peptides in fasting anesthetized rats, plasma insulin; assay type: in vivo, rat
[4] = test system: conscious trained rats; assay: Postprandial plasma insulin, serum glucose and GLP-1 in trained conscious fed rats; assay type: in vivo, rat; conditions: for postprandial plasma insulin concentration: chow 30 min
Experimental: Postprandial plasma insulin and serum glucose levels were studied in conscious trained rats. […] To avoid such a response, rats were trained for 10 d before experimentation. They were fasted from 17:00 to 08:00, and 0.9% NaCl (0.3 ml) was injected subcutaneously at 08:00 before feeding. After the injection of 0.9% NaCl, animals were given rat chow for 30 min, after which it was removed. At the end of ten days, the rats were accustomed to the injection and ate quickly (consuming 4–6 g of rat chow within 30 min).
On the day of the experiment, after fasting from 17:00 the night before, trained rats were injected subcutaneously at 08:00 with 0.3 ml of either 0.9% NaCl or ANTGIP (SEQ ID NO:8) (100 nmol/kg). This dose was chosen to approximately the amount of peptide used in the anesthetized animal studies of Example 3. After injection, six of the fasted control rats were killed to obtain baseline serum glucose and insulin levels. ANTGIP (SEQ ID NO:8)- or 0.9% NaCl-treated rats (n=6 in each group) were exposed to chow for 30 min, after which food was withdrawn.

[5] = test system: rats; assay: Oral glucose tolerance test in rats; assay type: in vivo, rat; conditions: ANTGIP 300 ng/kg i.p., glucose 1 g per kg by gavage
Experimental: Oral glucose tolerance tests were performed on rats injected intraperitoneally with ANTGIP (SEQ ID NO:8) (300 ng/kg) or 0.9% saline solution. After the intraperitoneal injection of 0.9% NaCl or ANTGIP (SEQ ID NO:8), an oral glucose tolerance test was performed. The test was done by administering a 40% glucose solution by oral gavage at a dose of 1 g per kg. The volume administered to each rat was approximately 0.5 ml. Blood was obtained at various time points for subsequent measurement of plasma insulin and glucose levels.

[6] = test system: jejunal test segment of anesthetized rats; assay: Intestinal glucose absorption from perfused jejunal segment; assay type: in vivo, rat; conditions: ANTGIP 10 nmol/kg i.v. single injection, 30 minute perfusion
Experimental: Male Sprague-Dawley rats weighing about 200–250 g are fasted overnight and anesthetized using intraperitoneal urethane (about 1.25 g per kg body weight). After midline laparotomy, an about 30-cm segment of jejunum, starting at about 5 cm distal to the ligament of Treitz, is isolated and flushed with approximately 20 ml of about 0.9% NaCl. The jejunal test segments are each perfused twice, initially with control buffer and then once again with control buffer or with the test solution. The test solution consists of Kres-Ringer-bicarbonate buffer containing about 5 mmol/L [^14C]D-glucose, and ^3H-labeled polyethylene glycol is included in the luminal perfusate to correct for fluid movement. The test or control solution is perfused through the jejunal segment without recirculation at a flow rate of about 1.6 ml/min, using a Harvard PHD 2000 syringe pump (Harvard Apparatus, Millis, Mass.). The effluent from the luminal segment is collected at about 5-min intervals for about 30 min. After the initial period of perfusion, the luminal contents in the jejunum are flushed with about 20 ml of about 0.9% NaCl prior to the initiation of the second period of perfusion.
Data points are believed to represent the rate of glucose disappearance from the luminal perfusate corrected for fluid movement. Results are expressed as the mean±SE of five experiments. […]

[7] = 20 min, ANTGIP 100 nmol/kg s.c.
[8] = 40 min, ANTGIP 100 nmol/kg s.c.

ISDYSIAMDKIRQQDFVNWLLAQK-NH2 [ANTGIP, GIP (7–30)-NH2]
stimulation of cAMP-dependent β-galactosidase production (versus GIP (1–42) / above control levels) ([1]; 10^−8 M peptide, 4 h): none
increase in cAMP-dependent β-galactosidase level ([1]; concentration as high as 10^−4 M): did not stimulate a detectable increase
IC50 [2]: 100 nM
antagonism of the cAMP stimulatory effect of GIP (1–42) ([2]; 10^−8 M GIP (1–42) plus fragment at 10^−8 M or 10^−6 M, 4 h): attenuate the cAMP stimulatory effects
change in the insulin response to GLP-1, glucose or arginine ([3]; ANTGIP 100 nmol/kg concomitantly): No significant change
effect on the insulinotropic properties of GIP ([3]; ANTGIP 100 nmol/kg concomitantly with GIP 1.5 nmol/kg): completely abolished
effect on insulin secretion, alone ([3]; ANTGIP infusion alone, 30 min): had no effect on insulin secretion
postprandial serum GLP-1 level [4, 7]: 290 ± 10 pg/mL
postprandial plasma insulin concentration [4, 7]: 25.3±4.7 μIU/ml
postprandial serum GLP-1 concentration [4, 8]: 330±20 pg/mgl
postprandial plasma insulin concentration [4, 8]: 27.1±2.6 μIU/ml
postprandial serum glucose concentration versus saline ([4]; ANTGIP 100 nmol/kg s.c.): similar
decrease in postprandial insulin release ([4]; chow-fed rats): 72%
plasma glucose after oral glucose versus control rats [5]: diminished at all time points
plasma insulin levels after oral glucose [5]: reduced plasma insulin levels
absorption of D-glucose from the jejunal test segment [6]: significantly reduce

From patent US7091183B1 (Boston Medical Center Corporation, priority 1996, dated 2006)
